This is an account of results in PMC12446542, “Neddylation inhibitor MLN4924 enhances H3K18 lactylation via binding to LDH and downregulates ITGB4 to block metastasis” (The Journal of Biological Chemistry, 2025).

For the test, the target named is T1, LDHA (Homo sapiens, UniProt P00338).
T1 construct: purified recombinant LDHA protein (CUSABIO, CSB-EP012832HU)
The experiment in a line: SPR (Biacore 8K, LDHA immobilized on CM5 chip, steady-state analysis); supported by CETSA in SK-BR-3 cells. It counts as binding. An excerpt:
SPR (Biacore 8K, LDHA immobilized on CM5 chip, steady-state analysis); supported by CETSA in SK-BR-3 cells on LDHA | using purified recombinant LDHA protein and MLN4924.

As for `NS(=O)(=O)OC[C@@H]1C[C@@H](n2ccc3c(N[C@H]4CCc5ccccc54)ncnc32)C[C@@H]1O` [MLN4924], the Kd came out at 35.5 µM.

The term Kd denotes the equilibrium constant for the complex coming apart. A low value points to a tighter complex.
